Test results taken from patent publication US11135234B2, “Effective aminoglycoside antibiotic for multidrug-resistant bacteria” (MICROBIAL CHEMISTRY RESEARCH FOUNDATION, priority 2015, dated 2021).
In brackets after ≈: the same amount, converted by molar mass.

What was measured:
[1] = system: K. pneumoniae ATCC BAA-1705; assay: MIC, agar plate dilution method, K. pneumoniae ATCC BAA-1705; format: cell-based, Klebsiella pneumoniae; details: for MIC: Klebsiella pneumoniae, ATCCBAA1705, K. pneumoniae ATCC BAA-1705, KPC-producing strain, read-out: minimal inhibitory concentration (MIC); for minimal inhibitory concentration (MIC): K. pneumoniae ATCC BAA-1705, KPC-producing strain
Outline: (§1)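 Minimal inhibitory concentration (μg/mL) was determined by agar plate dilution following the Japan Society of Chemotherapy method.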

[2] = system: A. baumannii ATCC BAA-1710; assay: MIC, agar plate dilution method, A. baumannii ATCC BAA-1710; format: cell-based, Acinetobacter baumannii; details: for MIC: Acinetobacter baumannii, ATCCBAA1710, A. baumannii ATCC BAA-1710, MDRA, read-out: minimal inhibitory concentration (MIC); for minimal inhibitory concentration (MIC): A. baumannii ATCC BAA-1710, MDRA
Outline: as §1

[3] = system: P. aeruginosa PAO1; assay: MIC, agar plate dilution method, P. aeruginosa PAO1; format: cell-based, Pseudomonas aeruginosa; details: for MIC: Pseudomonas aeruginosa, PAO1, P. aeruginosa PAO1, Sensitive bacterium, read-out: minimal inhibitory concentration (MIC); for minimal inhibitory concentration (MIC): P. aeruginosa PAO1, Sensitive bacterium
Outline: as §1

[4] = system: K. pneumoniae ATCC BAA-2146; assay: MIC, agar plate dilution method, K. pneumoniae ATCC BAA-2146; format: cell-based, Klebsiella pneumoniae; details: for MIC: Klebsiella pneumoniae, ATCCBAA2146, K. pneumoniae ATCC BAA-2146, NDM-producing strain, read-out: minimal inhibitory concentration (MIC); for minimal inhibitory concentration (MIC): K. pneumoniae ATCC BAA-2146, NDM-producing strain
Outline: as §1

[5] = system: S. marcescens TH-0447; assay: MIC, agar plate dilution method, S. marcescens TH-0447; format: cell-based, Serratia marcescens; details: for MIC: Serratia marcescens, TH0447, S. marcescens TH-0447, AMK-resistant, read-out: minimal inhibitory concentration (MIC); for minimal inhibitory concentration (MIC): S. marcescens TH-0447, AMK-resistant
Outline: as §1

[6] = system: E. coli JM109/pMW218; assay: MIC, agar plate dilution method, E. coli JM109/pMW218; format: cell-based, Escherichia coli; details: for MIC: Escherichia coli, JM109/PMW218, E. coli JM109/pMW218, Sensitive bacterium, read-out: minimal inhibitory concentration (MIC); for minimal inhibitory concentration (MIC): E. coli JM109/pMW218, Sensitive bacterium
Outline: as §1

[7] = system: E. faecium ATCC19434; assay: MIC, agar plate dilution method, E. faecium ATCC19434; format: cell-based, Enterococcus faecium; details: for MIC: Enterococcus faecium, ATCC19434, E. faecium ATCC19434, read-out: minimal inhibitory concentration (MIC); for minimal inhibitory concentration (MIC): E. faecium ATCC19434
Outline: as §1

[8] = system: P. aeruginosa MSC01035; assay: MIC, agar plate dilution method, P. aeruginosa MSC01035; format: cell-based, Pseudomonas aeruginosa; details: P. aeruginosa MSC01035, ABK-resistant; for MIC: Pseudomonas aeruginosa, read-out: minimal inhibitory concentration (MIC)
Outline: as §1

[9] = system: S. aureus RN4220/pMS520; assay: MIC, agar plate dilution method, S. aureus RN4220/pMS520; format: cell-based, Staphylococcus aureus; details: for MIC: Staphylococcus aureus, MRSA, read-out: minimal inhibitory concentration (MIC), S. aureus RN4220/pMS520, MRSA; for minimal inhibitory concentration (MIC): S. aureus RN4220/pMS520, MRSA
Outline: as §1

[10] = system: S. marcescens GN6944; assay: MIC, agar plate dilution method, S. marcescens GN6944; format: cell-based, Serratia marcescens; details: S. marcescens GN6944, GM-resistant; for MIC: Serratia marcescens, read-out: minimal inhibitory concentration (MIC)
Outline: as §1

[11] = system: P. aeruginosa PAO1/GN315; assay: MIC, agar plate dilution method, P. aeruginosa PAO1/GN315; format: cell-based, Pseudomonas aeruginosa; details: for MIC: Pseudomonas aeruginosa, read-out: minimal inhibitory concentration (MIC), P. aeruginosa PAO1/GN315, AMK-resistant; for minimal inhibitory concentration (MIC): P. aeruginosa PAO1/GN315, AMK-resistant
Outline: as §1

[12] = system: S. aureus RN4220; assay: MIC, agar plate dilution method, S. aureus RN4220; format: cell-based, Staphylococcus aureus; details: for MIC: Staphylococcus aureus, RN4220, S. aureus RN4220, Sensitive bacterium, read-out: minimal inhibitory concentration (MIC); for minimal inhibitory concentration (MIC): S. aureus RN4220, Sensitive bacterium
Outline: as §1

[13] = system: P. aeruginosa MSC17707; assay: MIC, agar plate dilution method, P. aeruginosa MSC17707; format: cell-based, Pseudomonas aeruginosa; details: for MIC: Pseudomonas aeruginosa, MSC17707, P. aeruginosa MSC17707, AMK-resistant, read-out: minimal inhibitory concentration (MIC); for minimal inhibitory concentration (MIC): P. aeruginosa MSC17707, AMK-resistant
Outline: as §1

[14] = system: S. aureus MF490; assay: MIC, agar plate dilution method, S. aureus MF490; format: cell-based, Staphylococcus aureus; details: for MIC: Staphylococcus aureus, MRSA, read-out: minimal inhibitory concentration (MIC); for minimal inhibitory concentration (MIC): S. aureus MF490, MRSA
Outline: as §1

CNC1C(O[C@H]2OC(CO)[C@@H](NC(=O)CCN)[C@H](O)C2O)O[C@H]2C[C@H](N)[C@@H](O[C@@H]3C(N)C[C@@H](N)C[C@H]3O)OC2C1O (stereo partly drawn) [Compound V1-q, 4″-N-(β-alanyl)-6-deoxy-5-epiapramycin]
MIC [1]: 1 µg/mL (≈ 1.68 µM)
MIC [2]: 4 µg/mL (≈ 6.73 µM)
MIC [3]: 2 µg/mL (≈ 3.36 µM)
MIC [4]: 1 µg/mL (≈ 1.68 µM)
MIC [5]: 8 µg/mL (≈ 13.5 µM)
MIC [6]: 1 µg/mL (≈ 1.68 µM)
MIC [7]: 8 µg/mL (≈ 13.5 µM)
MIC [8]: 4 µg/mL (≈ 6.73 µM)
MIC [9]: 1 µg/mL (≈ 1.68 µM)
MIC [10]: 4 µg/mL (≈ 6.73 µM)
MIC [11]: 4 µg/mL (≈ 6.73 µM)
MIC [12]: 1 µg/mL (≈ 1.68 µM)
MIC [13]: 2 µg/mL (≈ 3.36 µM)
MIC [14]: 4 µg/mL (≈ 6.73 µM)

CNC1C(O[C@H]2OC(CO)[C@@H](NC(=O)[C@@H](O)CN)[C@H](O)C2O)O[C@H]2C[C@H](N)[C@@H](O[C@@H]3C(N)C[C@@H](N)C[C@H]3O)OC2C1O (stereo partly drawn) [Compound V1-r, 6-deoxy-5-epi-4″-N-(L-isoseryl)apramycin]
MIC [1]: 1 µg/mL (≈ 1.64 µM)
MIC [2]: 4 µg/mL (≈ 6.55 µM)
MIC [3]: 2 µg/mL (≈ 3.28 µM)
MIC [4]: 1 µg/mL (≈ 1.64 µM)
MIC [5]: 8 µg/mL (≈ 13.1 µM)
MIC [6]: 0.5 µg/mL (≈ 0.819 µM)
MIC [7]: 8 µg/mL (≈ 13.1 µM)
MIC [8]: 4 µg/mL (≈ 6.55 µM)
MIC [9]: 1 µg/mL (≈ 1.64 µM)
MIC [10]: 8 µg/mL (≈ 13.1 µM)
MIC [11]: 2 µg/mL (≈ 3.28 µM)
MIC [12]: 1 µg/mL (≈ 1.64 µM)
MIC [13]: 2 µg/mL (≈ 3.28 µM)
MIC [14]: 4 µg/mL (≈ 6.55 µM)

CNC1C(O[C@H]2OC(CO)[C@@H](NC(=O)[C@H](O)CN)[C@H](O)C2O)O[C@H]2C[C@H](N)[C@@H](O[C@@H]3C(N)C[C@@H](N)C(O)[C@H]3O)OC2C1O (stereo partly drawn) [Compound V1-s, 5-epi-4″-N-(D-isoseryl)apramycin]
MIC [1]: 0.5 µg/mL (≈ 0.798 µM)
MIC [2]: 4 µg/mL (≈ 6.38 µM)
MIC [3]: 1 µg/mL (≈ 1.6 µM)
MIC [4]: 1 µg/mL (≈ 1.6 µM)
MIC [5]: 8 µg/mL (≈ 12.8 µM)
MIC [6]: 0.5 µg/mL (≈ 0.798 µM)
MIC [7]: 16 µg/mL (≈ 25.5 µM)
MIC [8]: 4 µg/mL (≈ 6.38 µM)
MIC [9]: 1 µg/mL (≈ 1.6 µM)
MIC [10]: 4 µg/mL (≈ 6.38 µM)
MIC [11]: 2 µg/mL (≈ 3.19 µM)
MIC [12]: 1 µg/mL (≈ 1.6 µM)
MIC [13]: 2 µg/mL (≈ 3.19 µM)
MIC [14]: 4 µg/mL (≈ 6.38 µM)

CNC1C(OC2OC(CO)C(NC(=N)N)C(O)C2O)OC2CC(N)C(OC3C(N)CC(N)C(O)C3N)OC2C1O (stereo not drawn) [Compound W2-a, 5-amino-4″-deamino-5-deoxy-5-epi-4″-guanidinoapramycin]
minimal inhibitory concentration (MIC) [1]: 1 µg/mL (≈ 1.72 µM)
minimal inhibitory concentration (MIC) [2]: 8 µg/mL (≈ 13.8 µM)
minimal inhibitory concentration (MIC) [3]: 4 µg/mL (≈ 6.89 µM)
minimal inhibitory concentration (MIC) [4]: 1 µg/mL (≈ 1.72 µM)
minimal inhibitory concentration (MIC) [5]: 4 µg/mL (≈ 6.89 µM)
minimal inhibitory concentration (MIC) [6]: 1 µg/mL (≈ 1.72 µM)
minimal inhibitory concentration (MIC) [7]: 8 µg/mL (≈ 13.8 µM)
minimal inhibitory concentration (MIC) [8]: 4 µg/mL (≈ 6.89 µM)
minimal inhibitory concentration (MIC) [9]: 1 µg/mL (≈ 1.72 µM)
minimal inhibitory concentration (MIC) [10]: 4 µg/mL (≈ 6.89 µM)
minimal inhibitory concentration (MIC) [11]: 4 µg/mL (≈ 6.89 µM)
minimal inhibitory concentration (MIC) [12]: 1 µg/mL (≈ 1.72 µM)
minimal inhibitory concentration (MIC) [13]: 8 µg/mL (≈ 13.8 µM)
minimal inhibitory concentration (MIC) [14]: 4 µg/mL (≈ 6.89 µM)

CNC1C(O[C@H]2OC(CO)[C@@H](NC(=O)CN)[C@H](O)C2O)O[C@H]2C[C@H](N)[C@@H](O[C@@H]3C(N)C[C@@H](N)C(O)[C@H]3N)OC2C1O (stereo partly drawn) [Compound W2-b, 5-amino-5-deoxy-5-epi-4″-N-glycylapramycin]
MIC [1]: 2 µg/mL (≈ 3.36 µM)
MIC [2]: 8 µg/mL (≈ 13.4 µM)
MIC [3]: 2 µg/mL (≈ 3.36 µM)
MIC [4]: 2 µg/mL (≈ 3.36 µM)
MIC [5]: 16 µg/mL (≈ 26.9 µM)
MIC [6]: 1 µg/mL (≈ 1.68 µM)
MIC [7]: 32 µg/mL (≈ 53.7 µM)
MIC [8]: 4 µg/mL (≈ 6.72 µM)
MIC [9]: 2 µg/mL (≈ 3.36 µM)
MIC [10]: 8 µg/mL (≈ 13.4 µM)
MIC [11]: 4 µg/mL (≈ 6.72 µM)
MIC [12]: 4 µg/mL (≈ 6.72 µM)
MIC [13]: 4 µg/mL (≈ 6.72 µM)
MIC [14]: 16 µg/mL (≈ 26.9 µM)

CNC1C(OC2OC(CO)C(NC(=N)N)CC2O)OC2CC(N)C(OC3C(N)CC(N)C(O)C3O)OC2C1O (stereo not drawn) [Compound X4-a, 4″-deamino-3″-deoxy-5-epi-4″-guanidinoapramycin]
minimal inhibitory concentration (MIC) [1]: 1 µg/mL (≈ 1.77 µM)
minimal inhibitory concentration (MIC) [2]: 4 µg/mL (≈ 7.07 µM)
minimal inhibitory concentration (MIC) [3]: 4 µg/mL (≈ 7.07 µM)
minimal inhibitory concentration (MIC) [4]: 1 µg/mL (≈ 1.77 µM)
minimal inhibitory concentration (MIC) [5]: 4 µg/mL (≈ 7.07 µM)
minimal inhibitory concentration (MIC) [6]: 0.5 µg/mL (≈ 0.884 µM)
minimal inhibitory concentration (MIC) [7]: 8 µg/mL (≈ 14.1 µM)
minimal inhibitory concentration (MIC) [8]: 8 µg/mL (≈ 14.1 µM)
minimal inhibitory concentration (MIC) [9]: 1 µg/mL (≈ 1.77 µM)
minimal inhibitory concentration (MIC) [10]: 4 µg/mL (≈ 7.07 µM)
minimal inhibitory concentration (MIC) [11]: 4 µg/mL (≈ 7.07 µM)
minimal inhibitory concentration (MIC) [12]: 1 µg/mL (≈ 1.77 µM)
minimal inhibitory concentration (MIC) [13]: 8 µg/mL (≈ 14.1 µM)
minimal inhibitory concentration (MIC) [14]: 4 µg/mL (≈ 7.07 µM)
